Source: ChEMBL document CHEMBL1201862, “PubChem BioAssay data set” (2004)
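Test compounds were applied to cells in 96-well plates for 48 hours at 5 doses. At the GI50, growth is halved.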 The source made the active and inactive calls. Rule as the data show it: active = GI50 up to about 1.1 µM and inactive = higher.

Key:
Test in all cases: growth of human tumour cells (NCI), 48 h
[1] = system: A498
[2] = system: TK-10
[3] = system: HCC 2998
[4] = system: DMS-114
[5] = system: DMS-273
[6] = system: NCI-H226
[7] = system: NCI-H522
[8] = system: NCI-H23
[9] = system: SK-OV-3
[10] = system: K562
[11] = system: DU-145
[12] = system: A549
[13] = system: HCT-116
[14] = system: PC-3
[15] = system: IGROV-1
[16] = system: ACHN
[17] = system: MDA-MB-435
[18] = system: 786-0
[19] = system: UACC-62
[20] = system: OVCAR-3
[21] = system: MDA-N
[22] = system: MDA-MB-231
[23] = system: CCRF-CEM
[24] = system: NCI/ADR-RES
[25] = system: COLO 205
[26] = system: SF-539
[27] = system: SNB-75
[28] = system: HOP-92
[29] = system: Malme-3M
[30] = system: T47D
[31] = system: UO-31
[32] = system: MCF7
[33] = system: OVCAR-4
[34] = system: KM12
[35] = system: UACC-257
[36] = system: SF-268
[37] = system: NCI-H460
[38] = system: HT-29
[39] = system: SK-MEL-28
[40] = system: RPMI-8226
[41] = system: HOP-62
[42] = system: OVCAR-8
[43] = system: SW-620
[44] = system: M14
[45] = system: HCT-15
[46] = system: LOX IMVI
[47] = system: EKVX
[48] = system: MOLT-4
[49] = system: RXF 393
[50] = system: SN12C
[51] = system: SK-MEL-5
[52] = system: SNB-19
[53] = system: SK-MEL-2
[54] = system: SF-295
[55] = system: U-251
[56] = system: CAKI-1
[57] = system: Hs-578T
[58] = system: BT-549
[59] = system: HL-60
[60] = system: SR
[61] = system: OVCAR-5

## CC1[C@@H]2CC=C3[C@H]4CCC5Cc6nc7c(nc6C[C@@]5(C)C4CC(=O)[C@]32CO[C@]12OC(C)(C)CC2O)CC1CC[C@@H]2C3=C[C@H]4O[C@@]5(O[C@@](C)(CO)C[C@@H]5O)C(C)[C@@]4(O)[C@]3(C)[C@@H](O)CC2[C@]1(C)C7 (some centres not stated)
[1]
  GI50: 1.43e-06 mM (active)
[2]
  GI50: 0.034 µM (active)
[3]
  GI50: 0.0955 µM (active)
[4]
  GI50: 172 pM (active)
[5]
  GI50: 105 pM (active)
[6]
  GI50: 2.73e-06 mM (active)
[7]
  GI50: 1.21e-06 mM (active)
[8]
  GI50: 5.5e-06 mM (active)

## CCCC(=O)[O-].[Na+] [SODIUM BUTYRATE]
[9]
  GI50: 3.03 mM (inactive)
[10]
  GI50: 1 mM (inactive)
[11]
  GI50: 2.37 mM (inactive)
[1]
  GI50: 4.4 mM (inactive)
[12]
  GI50: 7.83 mM (inactive)
[13]
  GI50: 1.39 mM (inactive)
[2]
  GI50: 719 µM (inactive)
[14]
  GI50: 7.1 mM (inactive)
[3]
  GI50: 400 µM (inactive)
[15]
  GI50: 4.45 mM (inactive)
[16]
  GI50: 4.47 mM (inactive)
[17]
  GI50: 3.47 mM (inactive)
[18]
  GI50: 10.6 mM (inactive)
[19]
  GI50: 1.65 mM (inactive)
[20]
  GI50: 9.91 mM (inactive)
[21]
  GI50: 3.58 mM (inactive)
[22]
  GI50: 5.71 mM (inactive)
[23]
  GI50: 2.05 mM (inactive)
[24]
  GI50: 0.843 mM (inactive)
[25]
  GI50: 0.533 mM (inactive)
[26]
  GI50: 3 mM (inactive)
[27]
  GI50: 9.68 mM (inactive)
[28]
  GI50: 5.68 mM (inactive)
[29]
  GI50: 0.543 mM (inactive)
[6]
  GI50: 6.25 mM (inactive)
[7]
  GI50: 3.44 mM (inactive)
[30]
  GI50: 2.42 mM (inactive)
[31]
  GI50: 2.52 mM (inactive)
[32]
  GI50: 1 mM (inactive)
[8]
  GI50: 3.97 mM (inactive)
[33]
  GI50: 18.7 mM (inactive)
[34]
  GI50: 9.44 mM (inactive)
[35]
  GI50: 1 mM (inactive)
[36]
  GI50: 8.28 mM (inactive)
[37]
  GI50: 2.39 mM (inactive)
[38]
  GI50: 4 mM (inactive)
[39]
  GI50: 4.17 mM (inactive)
[40]
  GI50: 0.243 mM (inactive)
[41]
  GI50: 7.21 mM (inactive)
[42]
  GI50: 1.99 mM (inactive)
[43]
  GI50: 2.31 mM (inactive)
[44]
  GI50: 5.46 mM (inactive)
[45]
  GI50: 10.6 mM
[46]
  GI50: 3.52 mM (inactive)
[47]
  GI50: 18.7 mM (inactive)
[48]
  GI50: 3.73 mM (inactive)
[49]
  GI50: 8.39 mM (inactive)
[50]
  GI50: 5.31 mM (inactive)
[51]
  GI50: 0.635 mM (inactive)
[52]
  GI50: 8.17 mM (inactive)
[53]
  GI50: 4.72 mM (inactive)
[54]
  GI50: 7.66 mM (inactive)
[55]
  GI50: 4.79 mM (inactive)
[56]
  GI50: 2.77 mM (inactive)
[57]
  GI50: 0.251 mM (inactive)
[58]
  GI50: 8.04 mM (inactive)
[59]
  GI50: 0.721 mM (inactive)
[60]
  GI50: 0.789 mM (inactive)
[61]
  GI50: 7.98 mM (inactive)
